Measured values from patent publication US20100179225A1, “POI Prevention” (CYTOKINE PHARMASCIENCES, INC., priority 2008, published 2010).

Key:
nitric oxide in serum = assay: Nitrite and nitrate in serum after small intestinal transplantation (Nitrate/Nitrite Colorimetric Assay kit); assay type: in vivo, Lewis rats; details: 1 mg/kg i.v.
Procedure: (§1) Syngeneic orthotopic small intestinal transplantation was performed in Lewis rats as previously described (Schwarz N T, Nakao A, Nalesnik M A, Kalff J C, Murase N, Bauer A J. Protective effects of ex vivo graft radiation and tacrolimus on syngeneic transplanted rat small bowel motility. Surgery 2002; 131: 413-423). […] Then the graft vascular bed was perfused with chilled UW solution (University of Wisconcin) and the intestinal lumen was irrigated with 50 ml cold 0.9% NaCl solution containing […]. neomycin sulfate (Uro Nebacetin N, Nycomed, Germany). The graft was stored in cold UW solution during the preparation of the recipient. An end-to-side anastomosis between the graft aorta and the recipient infra-renal aorta, and between the graft vein and recipient vena cava, was performed. Approximately 80% of the recipient intestine was removed and enteric continuity was restored by proximal and distal end-to-end intestinal anastomoses.
(§2) To investigate the effect of CPSI-2364 on postoperative small bowel ischemia/reperfusion injury and muscular function, CPSI-2364 (1 mg/kg bodyweight, solved in 2.5% mannitol) or vehicle (2.5% mannitol) were administered intravenously once to the donor and the recipient 90 minutes before the beginning of the organ retrieval operation as well as the transplantation procedure that was described above. […]

IL-6 = assay: Serum IL-6 after small intestinal transplantation (ELISA); assay type: in vivo, Lewis rats; details: 1 mg/kg i.v.
Procedure: as §1, §2

JNK/SAPK = details: v-myc immortalized spleen derived macrophage cell line; Lowenberg et al. J Immunol 2005; cited from earlier work

C/C(=N\NC(=N)N)c1cc(NC(=O)CCCCCCCCC(=O)Nc2cc(/C(C)=N/NC(=N)N)cc(/C(C)=N/NC(=N)N)c2)cc(/C(C)=N/NC(=N)N)c1 [Semapimod]
nitric oxide levels within the serum (nitric oxide in serum; 3 hours after reperfusion): 0.17 µmol/L
nitric oxide levels within the serum (nitric oxide in serum; 18 hours after reperfusion): 1.69 µmol/L
release of IL-6 (serum) (IL-6; after 3 hours): 345 pg/mL
release of IL-6 (serum) (IL-6; after 18 hours): 35 pg/mL
JNK/SAPK phosphorylation (JNK/SAPK): reduce JNK/SAPK phosphorylation
